Laboratory results reported in ChEMBL document CHEMBL2074295, “Molecular identification of the corticosterone-sensitive extraneuronal catecholamine transporter” (Nat Neurosci, 1998).

T1: Solute carrier family 22 member 3 (Homo sapiens, UniProt O75751)
T1 sequence (O75751 whole entry): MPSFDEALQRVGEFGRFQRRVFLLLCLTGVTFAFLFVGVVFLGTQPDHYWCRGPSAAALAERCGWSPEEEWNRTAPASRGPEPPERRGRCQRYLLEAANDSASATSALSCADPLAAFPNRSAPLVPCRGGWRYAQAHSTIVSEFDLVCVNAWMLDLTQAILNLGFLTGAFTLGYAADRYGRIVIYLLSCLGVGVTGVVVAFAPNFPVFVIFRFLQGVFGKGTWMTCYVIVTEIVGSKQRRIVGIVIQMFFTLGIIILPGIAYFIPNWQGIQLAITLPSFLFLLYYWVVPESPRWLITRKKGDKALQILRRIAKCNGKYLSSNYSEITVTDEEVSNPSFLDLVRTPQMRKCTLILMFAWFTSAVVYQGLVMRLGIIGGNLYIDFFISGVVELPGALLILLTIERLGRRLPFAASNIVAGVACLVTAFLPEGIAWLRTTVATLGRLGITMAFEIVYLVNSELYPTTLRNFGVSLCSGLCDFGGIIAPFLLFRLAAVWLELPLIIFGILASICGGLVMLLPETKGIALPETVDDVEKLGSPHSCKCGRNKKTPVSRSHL

B1: Solute carrier family 22 member 3 (Homo sapiens) (protein)
chain: MPSFDEALQRVGEFGRFQRRVFLLLCLTGVTFAFLFVGVVFLGTQPDHYWCRGPSAAALAERCGWSPEEEWNRTAPASRGPEPPERRGRCQRYLLEAANDSASATSALSCADPLAAFPNRSAPLVPCRGGWRYAQAHSTIVSEFDLVCVNAWMLDLTQAILNLGFLTGAFTLGYAADRYGRIVIYLLSCLGVGVTGVVVAFAPNFPVFVIFRFLQGVFGKGTWMTCYVIVTEIVGSKQRRIVGIVIQMFFTLGIIILPGIAYFIPNWQGIQLAITLPSFLFLLYYWVVPESPRWLITRKKGDKALQILRRIAKCNGKYLSSNYSEITVTDEEVSNPSFLDLVRTPQMRKCTLILMFAWFTSAVVYQGLVMRLGIIGGNLYIDFFISGVVELPGALLILLTIERLGRRLPFAASNIVAGVACLVTAFLPEGIAWLRTTVATLGRLGITMAFEIVYLVNSELYPTTLRNFGVSLCSGLCDFGGIIAPFLLFRLAAVWLELPLIIFGILASICGGLVMLLPETKGIALPETVDDVEKLGSPHSCKCGRNKKTPVSRSHL

How the values were obtained:
Assay type in all cases: functional, cell-based
[1] = molecular target: T1, Solute carrier family 22 member 3; assay: (§1) TP_TRANSPORTER: uptake in OCT3-expressing HEK293 cells
[2] = molecular target: T1, Solute carrier family 22 member 3; assay: TP_TRANSPORTER: inhibition of MPP+ uptake in OCT3-expressing HEK293 cells
[3] = substrate: NC[C@H](O)c1ccc(O)c(O)c1; assay: as §1

Molecule	Activity [1]	also measured
C[n+]1ccc(-c2ccccc2)cc1	substrate [+]	–
Nc1ncnc2c1ncn2CCOCP(=O)(O)O [ADEFOVIR]	substrate [+]	–
COc1cc2c(c(OC)c1OC)-c1ccc(OC)c(=O)cc1[C@@H](NC(C)=O)CC2 [COLCHICINE]	–	Ki [2]: 120 nM
CC(C)N1/C(=C\c2cc[n+](C(C)C)c3ccccc23)C=Cc2ccccc21 [DISPROCYNIUM24]	–	Ki [2]: 15 nM
NCCc1c[nH]c2ccc(O)cc12 [SEROTONIN]	substrate [+]	–
NCCc1ccc(O)cc1 [TYRAMINE]	substrate [+]	–
B1	–	Km [3]: 510 µM
